As usually defined, the IC50 is the point on the concentration scale where inhibition reaches its midpoint.

Each structure is given as a SMILES string. Active and inactive are the calls of the source. The rule behind the calls is not given here.

Activity and IC50 data for 24 compounds are collected here from ChEMBL document CHEMBL6153102, “Rational Design, Synthesis, and Biological Evaluation of Novel c-Met Degraders for Lung Cancer Therapy” (J Med Chem, 2025).

For test [1], the target named is T1, Protein cereblon/Hepatocyte growth factor receptor (Homo sapiens, UniProt P08581+Q96SW2). Put plainly: PROTAC activity at c-Met/CRBN in human EBC-1 cells assessed as induction of c-Met degradation at 100 nM incubated for 24 hrs by Western blotting analysis relative to control. It is filed as cell-based. (In general: A western blot detects proteins with antibodies after separation by electrophoresis.)
T1 sequence (P08581 25-1390 limits assumed): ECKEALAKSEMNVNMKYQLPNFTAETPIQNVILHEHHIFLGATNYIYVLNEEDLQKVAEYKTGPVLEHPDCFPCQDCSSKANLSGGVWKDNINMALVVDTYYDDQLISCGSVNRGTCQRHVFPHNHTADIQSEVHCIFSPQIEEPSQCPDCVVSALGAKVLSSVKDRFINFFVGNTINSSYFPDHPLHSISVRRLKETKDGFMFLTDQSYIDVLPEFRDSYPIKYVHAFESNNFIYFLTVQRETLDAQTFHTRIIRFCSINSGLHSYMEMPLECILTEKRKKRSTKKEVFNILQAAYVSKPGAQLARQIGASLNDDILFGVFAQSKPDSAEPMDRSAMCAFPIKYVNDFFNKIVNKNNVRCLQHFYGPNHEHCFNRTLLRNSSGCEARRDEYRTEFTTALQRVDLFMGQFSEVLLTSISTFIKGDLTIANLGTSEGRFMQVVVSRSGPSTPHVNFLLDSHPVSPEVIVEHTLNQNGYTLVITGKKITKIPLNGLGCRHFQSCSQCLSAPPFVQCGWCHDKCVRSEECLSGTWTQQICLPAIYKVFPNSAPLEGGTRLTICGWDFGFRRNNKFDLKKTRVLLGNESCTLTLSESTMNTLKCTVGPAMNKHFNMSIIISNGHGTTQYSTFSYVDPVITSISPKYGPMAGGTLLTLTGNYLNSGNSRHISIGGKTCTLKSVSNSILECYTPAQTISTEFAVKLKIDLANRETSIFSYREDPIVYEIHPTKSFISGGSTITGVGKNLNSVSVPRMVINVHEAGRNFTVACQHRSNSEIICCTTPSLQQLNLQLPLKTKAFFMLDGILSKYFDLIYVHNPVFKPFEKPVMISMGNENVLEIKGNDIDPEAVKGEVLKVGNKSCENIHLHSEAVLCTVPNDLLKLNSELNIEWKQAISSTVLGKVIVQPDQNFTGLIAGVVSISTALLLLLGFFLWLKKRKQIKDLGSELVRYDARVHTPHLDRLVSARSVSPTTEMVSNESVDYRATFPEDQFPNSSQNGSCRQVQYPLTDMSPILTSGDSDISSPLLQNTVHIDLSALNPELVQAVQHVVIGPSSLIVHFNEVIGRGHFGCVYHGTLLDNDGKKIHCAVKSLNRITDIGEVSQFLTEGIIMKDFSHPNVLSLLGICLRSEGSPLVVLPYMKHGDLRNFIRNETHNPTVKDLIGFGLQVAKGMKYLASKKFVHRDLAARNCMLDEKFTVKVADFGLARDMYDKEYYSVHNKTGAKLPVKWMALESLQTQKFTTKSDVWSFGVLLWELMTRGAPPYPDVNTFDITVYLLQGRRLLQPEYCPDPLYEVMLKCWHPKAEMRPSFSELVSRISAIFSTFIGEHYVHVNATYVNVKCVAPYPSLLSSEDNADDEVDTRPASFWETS
T1 sequence (Q96SW2 whole entry partner): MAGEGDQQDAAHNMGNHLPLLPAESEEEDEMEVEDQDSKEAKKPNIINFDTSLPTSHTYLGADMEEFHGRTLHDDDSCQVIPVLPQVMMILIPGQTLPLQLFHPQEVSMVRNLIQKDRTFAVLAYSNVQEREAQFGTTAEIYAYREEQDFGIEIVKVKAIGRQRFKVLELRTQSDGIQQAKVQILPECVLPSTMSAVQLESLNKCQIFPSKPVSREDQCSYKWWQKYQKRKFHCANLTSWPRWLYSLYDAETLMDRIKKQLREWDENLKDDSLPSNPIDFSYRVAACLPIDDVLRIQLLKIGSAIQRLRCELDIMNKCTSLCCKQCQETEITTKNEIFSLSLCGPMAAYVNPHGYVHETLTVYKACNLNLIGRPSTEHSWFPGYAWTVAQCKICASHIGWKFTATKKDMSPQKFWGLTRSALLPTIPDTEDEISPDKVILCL

Test [2] addresses T1, Protein cereblon/Hepatocyte growth factor receptor. Briefly: PROTAC activity at c-Met/CRBN in human A549 cells assessed as induction of c-Met degradation at 100 nM incubated for 24 hrs by Western blotting analysis relative to control. It is filed as cell-based.
The target is the same in test [3]. Briefly: PROTAC activity at c-Met/CRBN in human HCT-116 cells assessed as induction of c-Met degradation at 100 nM incubated for 24 hrs by Western blotting analysis relative to control. It counts as cell-based.
The subject of test [4] is EBC-1. Briefly: Antiproliferative activity against human EBC-1 cells assessed as cell viability incubated for 72 hrs by MTT assay. It is filed as functional, cell-based. Particulars: EBC-1, 72 h. For orientation: Tetrazolium assays rely on reduction of a dye to a coloured formazan, in cell work by metabolically active cells.
The subject of a further test is Hs746T. Put plainly: Antiproliferative activity against human Hs746T cells assessed as cell viability incubated for 72 hrs by MTT assay. It is filed as functional, cell-based.
The test system of another test is HCT-116. Put plainly: Antiproliferative activity against human HCT-116 cells assessed as cell viability incubated for 72 hrs by MTT assay. It is filed as functional, cell-based. Particulars: HCT-116, 72 h.
The subject of a further test is A549. Put plainly: Antiproliferative activity against human A549 cells assessed as cell viability incubated for 72 hrs by MTT assay. It counts as functional, cell-based. Particulars: A549, 72 h.
Test [5] relates to EBC-1. Briefly: Antitumor activity against human EBC-1 cells xenografted BALB/c nude mouse assessed as reduction in tumor volume at 20 mg/kg, ip administered for 7 days. Particulars: time 7 day. It counts as functional. Further details: scale not given: the % may be the effect or the level left.
A further test has as its system MKN-45. Briefly: Antiproliferative activity against human MKN-45 cells assessed as cell viability incubated for 72 hrs by MTT assay. It is filed as functional, cell-based. As to conditions: MKN-45, 72 h.

Turning to `N#Cc1cccc(-c2ccc(=O)n(Cc3cccc(-c4ncc(OCC5CCN(C(=O)CCCCNC(=O)C(C6CCCCC6)C6CCCCC6)CC5)cn4)c3)n2)c1`, the Activity in test [1] turned out to be 0.9%. Besides, the result in [2] and in test [3] was inactive.
With `N#Cc1cccc(-c2ccc(=O)n(Cc3cccc(-c4ncc(OCC5CCN(C(=O)CCCCNC(=O)C6CC7C=CC6C7)CC5)cn4)c3)n2)c1` (stereo not given), the Activity in [1] turned out to be 12.4%. The result in test [2] and in [3] was inactive.
On to `COc1ccc(C(=O)N2CCC3(CCN(C(=O)CCN4CCC(COc5cnc(-c6cccc(Cn7nc(-c8cccc(C#N)c8)ccc7=O)c6)nc5)CC4)CC3)CC2)cc1N1CCC(=O)NC1=O`, for which, in test [1], the Activity stood at 85.6%. Moreover, the outcome in test [2] and in test [3] was inactive.
With `CN1CCC(COc2cnc(-c3cccc(Cn4nc(-c5cccc(C#N)c5)ccc4=O)c3)nc2)CC1` [TEPOTINIB], the half-inhibitory concentration (IC50) stood at 12 nM in the test with EBC-1 [4]; 38 nM in the test on Hs746T; 4940 nM in the test with HCT-116; 13500 nM in the test on A549; 63 nM in the test on MKN-45. For the same compound, the Activity in the test with EBC-1 [5] came out at 74.5%.
`N#Cc1cccc(-c2ccc(=O)n(Cc3cccc(-c4ncc(OCC5CCN(C(=O)CCCCNC(=O)CC67C[C@H]8C[C@@H](C6)C[C@@H](C7)C8)CC5)cn4)c3)n2)c1`: the Activity in [1] came to 2.8%. Also, the result in test [2] and in test [3] was inactive.
Regarding `COc1ccc(C(=O)N2CC3CC(CN(C(=O)CN4CCC(COc5cnc(-c6cccc(Cn7nc(-c8cccc(C#N)c8)ccc7=O)c6)nc5)CC4)C3)C2)cc1N1CCC(=O)NC1=O`, the result in [1], in [2] and in test [3] was inactive.
Take `COc1ccc(C(=O)N2CCC3(CCN(C(=O)CCCCCN4CCC(COc5cnc(-c6cccc(Cn7nc(-c8cccc(C#N)c8)ccc7=O)c6)nc5)CC4)CC3)CC2)cc1N1CCC(=O)NC1=O`: the Activity in test [1] was 79.1%. Further, the outcome in [2] and in test [3] was inactive.
With `COc1ccc(C(=O)N2CCN(C(=O)CN3CCC(COc4cnc(-c5cccc(Cn6nc(-c7cccc(C#N)c7)ccc6=O)c5)nc4)CC3)CC2)cc1N1CCC(=O)NC1=O`, the outcome in test [1], in [2] and in [3] was inactive.
Regarding `COc1ccc(C(=O)N2CCC3(CC2)CN(C(=O)CN2CCC(COc4cnc(-c5cccc(Cn6nc(-c7cccc(C#N)c7)ccc6=O)c5)nc4)CC2)C3)cc1N1CCC(=O)NC1=O`, the Activity in test [1] was 37.7%. Besides, the result in [2] and in test [3] was inactive.
As to `N#Cc1cccc(-c2ccc(=O)n(Cc3cccc(-c4ncc(OCC5CCN(C(=O)C6c7ccccc7-c7ccccc76)CC5)cn4)c3)n2)c1`, the Activity in [1] is 13.4%. Moreover, the result in test [2] and in [3] was inactive.
For `CC(C)Cc1ccc([C@H](C)C(=O)N2CCC(COc3cnc(-c4cccc(Cn5nc(-c6cccc(C#N)c6)ccc5=O)c4)nc3)CC2)cc1`, the Activity in [1] came to 23.3%. In addition, the outcome in [2] and in test [3] was inactive.
On to `N#Cc1cccc(-c2ccc(=O)n(Cc3cccc(-c4ncc(OCC5CCN(C(=O)CCCCNC(=O)C6c7ccccc7-c7ccccc76)CC5)cn4)c3)n2)c1`, for which the Activity in test [1] is 4.1%. Besides, the outcome in [2] and in test [3] was inactive.
As for `N#Cc1cccc(-c2ccc(=O)n(Cc3cccc(-c4ncc(OCC5CCN(C(=O)C(C6CCCCC6)C6CCCCC6)CC5)cn4)c3)n2)c1`, the outcome in test [1], in test [2] and in [3] was inactive.
With `N#Cc1cccc(-c2ccc(=O)n(Cc3cccc(-c4ncc(OCC5CCN(C(=O)C[C@]67CC8CC(C[C@H](C8)C6)C7)CC5)cn4)c3)n2)c1`, the Activity in test [1] was 1.5%. In addition, the result in test [2] and in [3] was inactive.
Take `COc1ccc(C(=O)NCCCCN2CCC(COc3cnc(-c4cccc(Cn5nc(-c6cccc(C#N)c6)ccc5=O)c4)nc3)CC2)cc1N1CCC(=O)NC1=O`: the outcome in [1], in [2] and in test [3] was inactive.
Consider `COc1ccc(C(=O)N2CCC3(CCN(C(=O)CN4CCC(COc5cnc(-c6cccc(Cn7nc(-c8cccc(C#N)c8)ccc7=O)c6)nc5)CC4)C3)C2)cc1N1CCC(=O)NC1=O` (stereo not given), for which the Activity in [1] turned out to be 54.1%. Besides, the outcome in test [2] and in [3] was inactive.
As to `COc1ccc(C(=O)N2CC3CN(C(=O)CN4CCC(COc5cnc(-c6cccc(Cn7nc(-c8cccc(C#N)c8)ccc7=O)c6)nc5)CC4)CC3C2)cc1N1CCC(=O)NC1=O` (stereo not given), the result in [1], in [2] and in test [3] was inactive.
Take `N#Cc1cccc(-c2ccc(=O)n(Cc3cccc(-c4ncc(OCC5CCN(C(=O)C6CC7C=CC6C7)CC5)cn4)c3)n2)c1` (stereo not given): in [1], the Activity worked out at 22.4%. In addition, the outcome in [2] and in test [3] was inactive.
For the compound `COc1ccc(C(=O)NCCCCCCN2CCC(COc3cnc(-c4cccc(Cn5nc(-c6cccc(C#N)c6)ccc5=O)c4)nc3)CC2)cc1N1CCC(=O)NC1=O`, the outcome in test [1], in test [2] and in [3] was inactive.
On to `COc1ccc(C(=O)N2CCC3(CCN(C(=O)CN4CCC(COc5cnc(-c6cccc(Cn7nc(-c8cccc(C#N)c8)ccc7=O)c6)nc5)CC4)C3)CC2)cc1N1CCC(=O)NC1=O`, for which, in test [1], the Activity was determined as 74.6%. Also, the outcome in test [2] and in [3] was inactive.
For `CC(C)Cc1ccc([C@H](C)C(=O)NCCCCC(=O)N2CCC(COc3cnc(-c4cccc(Cn5nc(-c6cccc(C#N)c6)ccc5=O)c4)nc3)CC2)cc1`, the result in [1], in [2] and in [3] was inactive.
Turning to `N#Cc1cccc(-c2ccc(=O)n(Cc3cccc(-c4ncc(OCC5CCN(C(=O)CCCCNC(=O)C(c6ccccc6)c6ccccc6)CC5)cn4)c3)n2)c1`, the Activity in [1] stood at 4.4%. Also, the result in [2] and in [3] was inactive.
Consider `N#Cc1cccc(-c2ccc(=O)n(Cc3cccc(-c4ncc(OCC5CCN(C(=O)C(c6ccccc6)c6ccccc6)CC5)cn4)c3)n2)c1`, for which the Activity in test [1] stood at 2.7%. For the same compound, the result in [2] and in [3] was inactive.
`COc1ccc(C(=O)N2CCC3(CCN(C(=O)CCCCN4CCC(COc5cnc(-c6cccc(Cn7nc(-c8cccc(C#N)c8)ccc7=O)c6)nc5)CC4)CC3)CC2)cc1N1CCC(=O)NC1=O`: the Activity in test [1] was 83.7%. In addition, the result in test [2] and in test [3] was inactive.
